How the values were obtained:
[1] = tested on: rabbit corneas after -9D PRK; assay: Slit lamp central opacity (ImageJ) one month after -9D PRK; format: in vivo, New Zealand white rabbits; conditions: topical 0.2 mg/ml six times a day, vehicle 93±6
Procedure: Animal procedures were approved by the Institutional Animal Care and Use Committee at the Cleveland Clinic Foundation and animals were treated in accordance with the tenets of the Association for Research in Vision and Ophthalmology Statement for the Use of Animals in Ophthalmic and Vision Research. Twelve female 12- to 15-week-old New Zealand white rabbits weighing 2.5 to 3 kg each were included. Starting 24 hours prior to surgery and continuing 5 days after PRK, all rabbits received 60 mL children's liquid acetaminophen (Johnson & Johnson, Ft. Washington, PA, USA) per 1 L of drinking water. One eye of each rabbit was randomly selected to have −9.0 D (on myopia scale) PRK and received 2 drops of topical 1% proparacaine hydrochloride (Alcon, Fort Worth, TX, USA) prior to the surgery. […]
At 1 month after PRK and treatment, each rabbit was placed under ketamine-xylazine general anesthesia and the eyes were dilated with two drops of 1% tropicamide (Akorn Co., Lake Forest, IL, USA) for 30 minutes. […] For each study cornea, the mean opacity in pixels in the central 3.5 mm of the PRK ablated zone was determined by using ImageJ 1.53a analysis software (National Institutes of Health, Bethesda, MD, USA).

[2] = tested on: rabbit corneas after Descemetorhexis; assay: Slit lamp opacity, scarring fibrosis and neovascularization one month after Descemetorhexis or sham surgery; format: in vivo, New Zealand White rabbits; conditions: for intensity of opacity in a 2.5 mm circle of central cornea (ImageJ) vs vehicles or oral losartan alone: P<0.05
Procedure: All procedures involving animals were approved by the Institutional Animal Care and Use Committee (IACUC) at the Cleveland Clinic Foundation (Cleveland, OH, USA) and the Animal Care and Use Review Office of the Department of the Army (Fort Detrick, MD). All animals were treated in accordance with the tenets of the ARVO Statement for the Use of Animals in Ophthalmic and Vision Research. Twenty-eight 10- to 15-week-old female New Zealand White rabbits weighing 2.5 to 3.0 kg each were included in this study—four in each group.
The rabbits had general anaesthesia with 30 mg/kg ketamine hydrochloride and 5 mg/kg xylazine by IM injection. In addition, topical proparacaine hydrochloride 1% (Alcon, Ft Worth, TX, USA) was applied to each eye prior to the surgery. One cornea selected at random in each group either had sham surgery without Descemetorhexis or an 8 mm diameter central Descemet's membrane-endothelial excision. The time point of one month after surgery was selected for the study because myofibroblasts and fibrosis in the posterior cornea was maximal at this time point in a prior time course Descemetorhexis study (Sampaio et al., 2021). Descemetorhexis was performed as described in the prior study (Sampaio et al., 2021). Briefly, a wire lid speculum was placed into one eye of each rabbit and an 8 mm diameter gentian violet circle was marked on the epithelial surface for reference. A limbal entry incision was created with a 1.6 mm blade (Bausch and Lomb, Rochester, NY, USA) and 0.3 ml Healon OVD (Abbott Medical Optics Inc. Santa Ana, CA, USA) was injected into the anterior chamber. A reversed Sinskey hook (Katena, Denville, New Jersey, USA) was placed into the anterior chamber and an 8 mm diameter disc of Descemet's membrane and endothelium was excised underlying the 8 mm area previously marked on the anterior corneal surface, without a subsequent endothelial corneal transplant. No removal of Descemet's membrane or endothelium was performed in unwounded sham surgery eyes. Remaining Healon OVD was removed with a Simcoe irrigation and aspiration cannula (Bausch & Lomb, Storz, Rochester, NY, USA) and the anterior chamber was filled with balanced salt solution (BSS). A single 10-0 nylon suture was placed at the incision site to prevent leakage from the anterior chamber. One drop of ciprofloxacin (Alcon, Ft. Worth, TX, USA) was applied to the corneas immediately after surgery and four times a day until the epithelium entry wound healed at approximately 2 days.
The oral solution was prepared with 5 ml distilled water+50 ml ora-plus (suspending vehicle—Perrigo, Dublin, Ireland)+45 ml Ora-sweet (flavored syrup vehicle—Perrigo).
After one month of treatment, study eyes were dilated with two drops of 1% tropicamide (Akom Co., Lake Forest, IL) for thirty minutes. After general anaesthesia, the study eye in each rabbit had standardized slit lamp photographs at 20× magnification with a Haag Streit (Mason, OH, USA) BX900 slit lamp photography system using identical lighting position and intensity. For each study eye, the intensity of a 2.5 mm diameter central circle (not including the light reflex, examples shown in FIG. 1) was determined using ImageJ 1.53a analysis software. Statistical comparisons of the intensity of opacity was performed using the Kruskal-Wallis test followed by post-hoc Dunn's-Bonferroni test and p<0.05 was considered statistically significant

[3] = Descemetorhexis, topical losartan

- effect on the transparency of sham unwounded corneas ([2]; oral 5 mg/kg three times per day): no effect
- effect on the transparency of sham unwounded corneas ([2]; topical 0.1 mg/ml six times per day): no effect
SMILES: CCCCc1nc(Cl)c(CO)n1Cc1ccc(-c2ccccc2-c2nn[nH]n2)cc1 [losartan]
- mean pixels of opacity within the central 3.5 mm diameter area (mean±SEM) [1]: 77±3 pixels
- scarring fibrosis and neovascularization compared to vehicle control corneas ([2]; Descemetorhexis, oral 5 mg/kg three times a day): no difference
- scarring fibrosis (slit lamp) ([2]; Descemetorhexis, topical 0.1 mg/ml six times per day): overall decrease
- changes in corneal opacity and neovascularization compared with topical losartan alone ([2]; Descemetorhexis, topical 0.1 mg/ml six times per day and oral 5 mg/kg three times a day): not different
- intensity of opacity in a 2.5 mm circle of central cornea (ImageJ) vs vehicles or oral losartan alone ([2]; Descemetorhexis, topical and oral losartan): significant decrease
- corneal neovascularization that developed after Descemetorhexis [2, 3]: reduced
- intensity of opacity in a 2.5 mm circle of central cornea (ImageJ) vs vehicles or oral losartan alone [2, 3]: significant decrease

From patent US20250367170A1, “TOPICAL ANGIOTENSIN II RECEPTOR BLOCKERS (ARBS) FOR TREATING EYE CONDITIONS” (The Cleveland Clinic Foundation, priority 2022, published 2025)
